Source: paper PMC5773487, “Harnessing insulin- and leptin-induced oxidation of PTP1B for therapeutic development” (Nature Communications, 2018)
Numbering of substitutions follows the chain as printed. “Also recorded” adds a separate entry of the source.

T1: reduced PTP1B (Homo sapiens, UniProt P18031)
T1 construct: Purified PTP1B (1–321) (100 nM) was mixed with increasing concentrations of H2O2; 6xHis (C); made in house; host or cells: E. coli BL21 (DE3)-RIL
T1 sequence (P18031 1-321): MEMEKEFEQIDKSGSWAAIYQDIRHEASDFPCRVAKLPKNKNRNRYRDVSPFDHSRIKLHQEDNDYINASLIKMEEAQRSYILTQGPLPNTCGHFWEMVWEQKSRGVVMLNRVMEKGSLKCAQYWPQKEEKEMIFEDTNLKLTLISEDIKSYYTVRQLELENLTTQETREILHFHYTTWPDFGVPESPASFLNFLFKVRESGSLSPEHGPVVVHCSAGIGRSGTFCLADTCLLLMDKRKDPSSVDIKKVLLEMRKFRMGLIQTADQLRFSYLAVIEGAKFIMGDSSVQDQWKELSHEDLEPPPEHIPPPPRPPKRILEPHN

T2: oxidized PTP1B-mut2 (L37F/K39E/K41R) (Homo sapiens, UniProt P18031, K39E/K41R/L37F)
T2 construct: PTP1B (1–321) and TCPTP (1–317) cloned in pET21b vector were used as templates; 6xHis (C); made in house; host or cells: E. coli BL21 (DE3)-RIL
T2 sequence (P18031 1-321 L37F/K39E/K41R): T1 sequence (P18031 1-321) with L37F, K39E, K41R

B1: scFv45: recombinant conformation-sensor single-chain variable fragment antibody recognizing oxidized PTP1B (antibody, V domains shown)
VH: TVTLDESGGGLQAPGGALSLVCKASGFTFSSYDMGWIRQAPGKGLEYVAGITDNGRYASYGSAVDGRATISRDNGQSSVRLQLNNLRAEDTGTYYCARDDGSGWTGNSIDAWGHGTEVIVSE
VL: ALTQPSSVSANPGGTVKITCSGSSSAYGYGWYQQKSPGSAPVTVIYNNNKRPSNIPSRFSGSKSGSTGTLTITGVQAEDEAVYFCGSEDSSTDAIFGAGTTLTVL

Tests used:
[1] = test system: leptin signaling in hepatic stellate cells; assay: leptin signaling in hepatic stellate cells (immunoblot); type: cell-based, human; conditions: for effect on JAK2 phosphorylation in presence of apocynin: NOX inhibitor apocynin; for leptin-induced tyrosine phosphorylation of JAK2: chelerythrine 0–5 μM or ectopic scFv45
Procedure: Human hepatic stellate cells (HSteCs; ScienCell research laboratories, CA) were cultured according to manufacturer’s instructions. Cells were seeded on poly-L-lysine coated dishes and maintained in Stellate Cell Medium (SteCM, Cat. #5301). When cells reached 70% confluency they were split for various experiments. To study leptin signaling, HSCs were incubated in serum-free DMEM for 24 h and then stimulated with varying concentration of leptin (0, 10, 25, 50, 100, and 200 ng ml^−1) for 15 min. To study the effect of chelerythrine and protopine, serum starved cells were incubated with the compounds at varying concentrations (0–5 µM) for 1 h prior to leptin stimulation. In some groups, cells were pre-incubated (60 min) with the NADPH oxidase inhibitor apocynin (100 nM), before stimulation with leptin.

reduced PTP1B = target: T1, reduced PTP1B; assay: phosphatase activity of reduced PTP1B, DiFMUP substrate; type: biochemical
Procedure: Fig. 4 Identification and characterization of small molecules that mimic the effect of scFv45. a Reversibly oxidized PTP1B (PTP1B-OX) was generated by incubation with H2O2 in vitro, desalted, then assayed (20 nM) in the presence and absence of individual members of the LOPAC library. In the right panel, each dot represents an activity measurement. […] Data are representative of at least two independent experiments (n = 2). b Increasing concentration of sanguinarine was tested against reduced (circle) and oxidized (square) forms of PTP1B, using DiFMUP as substrate. c Increasing concentration of levamisole was tested against reduced (circle) and oxidized (square) PTP1B, using DiFMUP as substrate. d PTP1B-OX (200 nM) was incubated with sanguinarine (25 µM) for 5 min and the complex was diluted 100-fold and the activity was monitored for 120 min continuously. e PTP1B-OX (200 nM) was incubated with levamisole (40 µM) for 5 min and the complex was diluted 100-fold and the activity was monitored for 120 min continuously. f Increasing concentration of chelerythrine, an analog of sanguinarine, was tested against reduced (circle) and oxidized (square) forms of PTP1B, using DiFMUP as substrate. […] Individual data points represent the mean obtained from three separate experiments (n = 3; b–g)
Purified PTP1B (1–321) (100 nM) was mixed with increasing concentrations of H2O2 (0.05–100 mM) in phosphatase assay buffer (50 mM HEPES, pH 7.0, 100 mM NaCl, 0.1% BSA) at room temperature for 5 min. From this reaction mixture PTP1B (10 nM) was used to monitor phosphatase activity using DiFMUP as the substrate, with or without 5 mM TCEP. Activity of each sample was compared to that of the untreated PTP1B in the presence of 5 mM TCEP.

[2] = target: T2, oxidized PTP1B-mut2 (L37F/K39E/K41R); assay: reduction and reactivation of oxidized PTP1B-mut2, DiFMUP, TCEP; type: biochemical; conditions: TCEP 5 mM
Procedure: Fig. 1 Molecular characterization of PTP1B-scFv45 interaction. a Overlay of PTP1B (gray) and TCPTP (pale blue) crystal structures, highlighting residues that are changed in generating mutant forms (-mut1 and -mut2) of the enzymes. b Increasing concentrations of recombinant HA-tagged scFv45 were incubated with oxidized wild-type (-wt) or mutant (-mut) forms of PTP1B (top panel) and oxidized wild-type or mutant forms of TCPTP (bottom panel). The protein complexes were precipitated with anti-HA-agarose beads and equivalent amounts of input, supernatant, and eluate were subjected to immunoblot analysis. Data are representative of at least three independent experiments (n = 3). c Michaelis–Menten plots for wild-type (circle), -mut1 (square), or -mut2 (triangle) forms of PTP1B (left) and TCPTP (right) are shown. […] Individual data points represent the mean obtained from three separate experiments (n = 3). d Wild-type and mutant forms of PTP1B were incubated with increasing concentrations of H2O2 and phosphatase activity was measured using DiFMUP in the absence (black bar) and presence (gray bar) of the reducing agent TCEP (5 mM). e Oxidized PTP1B-wt (circle), PTP1B-mut1 (square), or PTP1B-mut2 (triangle) were incubated with increasing concentration of scFv45 (0–1000 nM) and phosphatase activity was measured using DiFMUP as substrate in the presence of the reducing agent TCEP (5 mM). […]

| Molecule | effect on JAK2 phosphorylation in presence of apocynin [1] | leptin-induced tyrosine phosphorylation of JAK2 [1] | inhibition of the reduced form of PTP1B (reduced PTP1B) | inhibition of reduction and reactivation of oxidized PTP1B-mut2 [2] |
| --- | --- | --- | --- | --- |
| COc1ccc2c(c[n+](C)c3c4cc5c(cc4ccc23)OCO5)c1OC [chelerythrine] | attenuated | dose-dependent increase | no apparent inhibition; also recorded: did not inhibit | unable to inhibit; also recorded: insensitive |
| CN1CCc2cc3c(cc2C(=O)Cc2ccc4c(c2C1)OCO4)OCO3 [protopine] |  |  | did not inhibit; also recorded: ineffective |  |
| B1 | abrogated | enhanced phosphorylation of JAK2 |  | did not attenuate |
